Test results published in BigSolDB 2.1.

COC(=O)N(OC)c1ccccc1COc1ccn(-c2ccc(Cl)cc2)n1
solubility (mole fraction)
Settings	283.15 K	288.15 K	293.15 K	298.15 K	303.15 K	308.15 K
in cyclohexane	0.000942	0.00148	0.00217	0.00311	0.00448	0.00609
in ethanol	0.00458	0.00601	0.00866	0.0117	0.0184	0.0326
in isobutanol	0.00283	0.00377	0.00527	0.00758	0.0115	0.0186
in isopropanol	0.00248	0.00332	0.00481	0.00687	0.0102	0.0163
in n-butanol	0.00534	0.00663	0.00916	0.0132	0.0214	0.0343
